Patent US10548912B2, “Dosage regimen for a tiacumicin compound” (Astellas Pharma Europe Ltd., priority 2015, dated 2020)

Key:
CDI = assay: Individual patient data for extended fidaxomicin treatment regimen; type: in vivo, human
Excerpt: Individual Patient Data for Extended Fidaxomicin Treatment Regimen

[1] = system: Clostridium difficile (C. diff) toxins A and B; assay: Detection of C. difficile toxins A and B in human faecal samples by ELISA (EXTEND samples); type: in vivo
Description: The detection of Clostridium difficile (C. diff) toxins A and B in human faecal samples was performed by ELISA. The samples to be analysed originated from clinical study 2819-MA-1002 (EXTEND).
The samples were sent to LGC (Analytical lab in Fordham, Cambridgeshire, UK) packed in dry ice and upon receipt stored in a freezer (nominally −80° C.). For each patient a stool sample was collected at Day 0 (screening) and also in case of disease recurrence or an unscheduled visit. For subjects participating in the Microbiome sub-study stool samples were collected at: Day 0 (screening), Day 5, Day 12, Day 27, Day 40, Day 55 and in the case of disease recurrence or an unscheduled visit. A total of 596 faecal samples were collected during the study.
C. difficile toxins A and B in human faecal samples were detected using TECHLAB C. difficile Tox A/B II ELISA kits (Product Number T5015).
The assay readout is the spectrophotometric dual wavelength optical density (OD) read at 450 nm and referenced at 620 nm and expressed in Absorbance Units (AU). All samples were measured in duplicate. The presence (+) or absence (−) of toxin was reported together with the mean OD.
The acceptability of each batch of test samples was dependent on the data from the QC samples fulfilling the acceptance criteria outlined below in Table 5, in that all positive QCs remain above the cut off value of >0.080 OD and negative QCs remain ≤0.080 OD. All batches contained 2 separate sets of QC samples which were measured in duplicate. The precision was calculated between the OD of replicates of each set using the coefficient of variation (CV) which should be <20%.

[2] = in vitro BCS study; low solubility, low permeability; cited from earlier work
[3] = Sub-study visit day 5, n = 20 per arm
[4] = Sub-study visit day 12, n = 20 per arm
[5] = Sub-study visit day 27, n = 20 Fidaxomicin, 17 Vancomycin

CCc1c(Cl)c(O)c(Cl)c(O)c1C(=O)O[C@H]1[C@H](O)[C@H](OC)[C@H](OC/C2=C\C=C\C[C@H](O)/C(C)=C/[C@H](CC)[C@@H](O[C@@H]3OC(C)(C)[C@@H](OC(=O)C(C)C)[C@H](O)[C@@H]3O)/C(C)=C/C(C)=C/C[C@@H]([C@@H](C)O)OC2=O)O[C@@H]1C [fidaxomicin, 3-[[[6-deoxy-4-O-(3,5-dichloro-2-ethyl-4,6-dihydroxybenzoyl)-2-O-methyl-β-D-mannopyranosyl]oxy]methyl]-12(R)-[[6-deoxy-5-C-methyl-4-O-(2-methyl-1-oxopropyl)-β-D-lyxo-hexopyranosyl]oxy]-11 (S)-ethyl-8(S)-hydroxy-18(S)-(1(R)-hydroxyethyl)-9,13,15-trimethyloxacyclooctadeca-3,5,9,13,15-pentaene-2-one]
Number of Unformed bowel movements per day (CDI; Patient 1 (ID: 3000510001), Day 1): 4 | Number of Unformed bowel movements per day (CDI; Patient 1 (ID: 3000510001), Day 2): 2 | Number of Unformed bowel movements per day (CDI; Patient 1 (ID: 3000510001), Day 3): 1 | Number of Unformed bowel movements per day (CDI; Patient 1 (ID: 3000510001), Day 4): 0 | Number of Unformed bowel movements per day (CDI; Patient 1 (ID: 3000510001), Day 5): 0 | Number of Unformed bowel movements per day (CDI; Patient 1 (ID: 3000510001), Day 6): 2 | Number of Unformed bowel movements per day (CDI; Patient 1 (ID: 3000510001), Day 7): 0 | Number of Unformed bowel movements per day (CDI; Patient 1 (ID: 3000510001), Day 8): 0 | Number of Unformed bowel movements per day (CDI; Patient 1 (ID: 3000510001), Day 9): 0 | Number of Unformed bowel movements per day (CDI; Patient 1 (ID: 3000510001), Day 10): 0 | Number of Unformed bowel movements per day (CDI; Patient 2 (ID: 3000710001), Day 1): 7 | Number of Unformed bowel movements per day (CDI; Patient 2 (ID: 3000710001), Day 2): 7 | Number of Unformed bowel movements per day (CDI; Patient 2 (ID: 3000710001), Day 3): 2 | Number of Unformed bowel movements per day (CDI; Patient 2 (ID: 3000710001), Day 4): 1 | Number of Unformed bowel movements per day (CDI; Patient 2 (ID: 3000710001), Day 5): 1 | Number of Unformed bowel movements per day (CDI; Patient 2 (ID: 3000710001), Day 6): 2 | Number of Unformed bowel movements per day (CDI; Patient 2 (ID: 3000710001), Day 7): 1 | Number of Unformed bowel movements per day (CDI; Patient 2 (ID: 3000710001), Day 8): 1 | Number of Unformed bowel movements per day (CDI; Patient 2 (ID: 3000710001), Day 9): 1 | Number of Unformed bowel movements per day (CDI; Patient 2 (ID: 3000710001), Day 10): 0 | Number of Unformed bowel movements per day (CDI; Patient 3 (ID: 3400310001), Day 1): 8 | Number of Unformed bowel movements per day (CDI; Patient 3 (ID: 3400310001), Day 2): 0 | Number of Unformed bowel movements per day (CDI; Patient 3 (ID: 3400310001), Day 3): 0 | Number of Unformed bowel movements per day (CDI; Patient 3 (ID: 3400310001), Day 4): 0 | Number of Unformed bowel movements per day (CDI; Patient 3 (ID: 3400310001), Day 5): 0 | Number of Unformed bowel movements per day (CDI; Patient 3 (ID: 3400310001), Day 6): 0 | Number of Unformed bowel movements per day (CDI; Patient 3 (ID: 3400310001), Day 7): 0 | Number of Unformed bowel movements per day (CDI; Patient 3 (ID: 3400310001), Day 8): 0 | Number of Unformed bowel movements per day (CDI; Patient 3 (ID: 3400310001), Day 9): 0 | Number of Unformed bowel movements per day (CDI; Patient 3 (ID: 3400310001), Day 10): 0 | Number of Unformed bowel movements per day (CDI; Patient 4 (ID: 3580210001), Day 1): 9 | Number of Unformed bowel movements per day (CDI; Patient 4 (ID: 3580210001), Day 2): 9 | Number of Unformed bowel movements per day (CDI; Patient 4 (ID: 3580210001), Day 3): 5 | Number of Unformed bowel movements per day (CDI; Patient 4 (ID: 3580210001), Day 4): 3 | Number of Unformed bowel movements per day (CDI; Patient 4 (ID: 3580210001), Day 5): 2 | Number of Unformed bowel movements per day (CDI; Patient 4 (ID: 3580210001), Day 6): 3 | Number of Unformed bowel movements per day (CDI; Patient 4 (ID: 3580210001), Day 7): 3 | Number of Unformed bowel movements per day (CDI; Patient 4 (ID: 3580210001), Day 8): 1 | Number of Unformed bowel movements per day (CDI; Patient 4 (ID: 3580210001), Day 9): 1 | Number of Unformed bowel movements per day (CDI; Patient 4 (ID: 3580210001), Day 10): 2 | CDI toxin in faecal stool samples, Negative (%) [1, 3]: (75%) | CDI toxin in faecal stool samples, Negative (number of subjects) [1, 3]: 15 | CDI toxin in faecal stool samples, Positive (%) [1, 3]: (25%) | CDI toxin in faecal stool samples, Positive (number of subjects) [1, 3]: 5 | CDI toxin in faecal stool samples, Negative (%) [1, 4]: (95.0%) | CDI toxin in faecal stool samples, Negative (number of subjects) [1, 4]: 19 | CDI toxin in faecal stool samples, Positive (%) [1, 4]: (5.0%) | CDI toxin in faecal stool samples, Positive (number of subjects) [1, 4]: 1 | CDI toxin in faecal stool samples, Negative (%) [1, 5]: (95.0%) | CDI toxin in faecal stool samples, Negative (number of subjects) [1, 5]: 19 | CDI toxin in faecal stool samples, Positive (%) [1, 5]: (5.0%) | CDI toxin in faecal stool samples, Positive (number of subjects) [1, 5]: 1 | BCS class [2]: Class IV
